According to paper PMC10447463, “Data-mining unveils structure–property–activity correlation of viral infectivity enhancing self-assembling peptides” (Nature Communications, 2023):
Read-outs that look alike come from different tables or passages of the source.

Experiments:
[1] = Zeta-potential measurement; format: physicochemical; conditions: for Zeta-pot. / mV: zeta potential of peptide, Fig S15 source data
In short: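 Dissolve peptide from DMSO (10 mg/mL stock) into PBS pH 7.4 to 1 mg/mL. Incubate 1 d, RT. Dilute in 1 mM KCl just before reading. Derive zeta potential from mobility (Smoluchowski).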

[2] = test system: HIV-1 infection of TZM-bl cells; test: HIV-1 infectivity enhancement assay, β-galactosidase luminescence; format: cell-based; conditions: for Log10 Inf. rel. to EF-C: log10 of HIV-1 infection of TZM-bl cells relative to EF-C, Fig S15 source data, asymmetric std dev errors; for Rel-to EFC / n-fold to virus: Fig S8 panels B, D
[3] = Turbidity, derived count rate of scattered light; format: physicochemical; conditions: for Log Count Rate: log of derived count rate; for Count Rate: turbidity
In short: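 One-day room-temperature aggregation at 1 mg/mL in PBS (pH 7.4) preceded measurement; samples then went into 1 mM KCl. Triplicates per sample, two independent experiments averaged.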

[4] = Feb2021, Log10 of infectivity relative to EF-C
[5] = Feb2021, n-fold enhancement relative to EF-C
[6] = Feb2021 run, infectivity n-fold relative to virus alone
[7] = Feb2021 run, log10 of infectivity relative to EF-C
[8] = Feb2021 run, n-fold infectivity relative to EF-C
[9] = infectivity class (low / medium / high) of each library peptide, main list in c1-c6, same classes repeated in sub-lists of sequences containing the hydrophobicity/charge patterns P+,H0,P+,H0,P0,H0,P0, P+,H0,P0,H0,P0,H0,P0, P+,H0,P0,H0
[10] = infectivity class (low / medium / high) of the peptide in the sequence-pattern analysis, Fig. S22-A4, class limits not given
[11] = category 1 or 0 from count rate, key not given
[12] = derived count rate of scattered light, mean, std deviation in next column
[13] = derived count rate of scattered light, mean, std deviation in separate column
[14] = Feb2021, 1.3 µM value relative to virus only (0 µM)
[15] = Feb2021, n-fold infectivity relative to EF-C
[16] = Feb2021, unrounded values of the 1.3 µM column
[17] = infectivity enhancement relative to EF-C
[18] = infectivity n-fold relative to virus alone
[19] = Fig S8 panels A, C, asymmetric log errors
[20] = Fig S8 panels B, D, derived count rate of scattered light
[21] = derived count rate of scattered light
[22] = category derived from the zeta potential
[23] = Feb2021, infectivity enhancement relative to EF-C
[24] = category 1 or 0 derived from the count rate, key not given
[25] = Feb2021, log10 of infectivity relative to EF-C
[26] = infectivity enhancement relative to EF-C (=1), Feb2021 run
[27] = infectivity n-fold relative to virus only, Feb2021 run
[28] = log10 of infectivity relative to EF-C, Feb2021 run
[29] = derived count rate from zeta measurement, mean

| Substance | Zeta category ( +1 = if > 4 mV;-1 = if < -4 mV; 0 = -4mV to 4 mV) [1] | Zeta category ( +1 = if > 4 mV;-1 = if < -4 mV; 0 = -4mV to 4 mV) ([1]; category from zeta potential) | Zeta Pot. / mV ([1]; mean, Std Zeta in next column) | Zeta Pot. / mV ([1]; mean, Std in separate column) | Zeta-pot. / mV [1] | Log10 of Rel to EFC (Feb2021) [2, 4] | Rel-to EFC (Feb-2021) [2, 5] | n-fold to virus (Feb2021) [2, 6] | Log10 of Rel to EFC (Feb2021) [2, 7] | Rel-to EFC (Feb-2021) [2, 8] | infectivity [2, 9] | infectivity [2, 10] | Log10 Inf. rel. to EF-C [2] | Zeta Count Rate Category [3, 11] | Zeta Count Rate / kcps [3, 12] | Zeta Count Rate / kcps [3, 13] | n-fold to virus (Feb2021) [2, 14] | Rel-to EFC (Feb-2021) [2, 15] | Absolute Infectivity / RLU /s (Feb2021) [2, 16] | Zeta Count Rate Category ([3]; category 1/0, no key printed) | other results |
| --- | --- | --- | --- | --- | --- | --- | --- | --- | --- | --- | --- | --- | --- | --- | --- | --- | --- | --- | --- | --- | --- |
| KIKIQINMW [JGB1 /TM85] | 1 (+1 = if > 4 mV) | 1 (+1 = if > 4 mV) | 19.7 mV | 19.7 mV | 19.7 mV | 0.3339 | 2.157 | 90.64 | 0.3339 | 2.157 | high | high | 0.3339 | 1 | 239.6 kcps | 239.6 kcps |  |  |  |  |  |
| KFKFQFNMWQ [JG4] | 1 (+1 = if > 4 mV) | 1 (+1 = if > 4 mV) | 25.4 mV | 25.4 mV | 25.4 mV | -0.1164 | 0.7649 | 32.14 | -0.1164 | 0.7649 | high | high | -0.1164 | 1 | 734.6 kcps | 734.6 kcps | 32.14 | 0.7649 | 20676.66667 RLU /s | 1 | Zeta Pot. / mV ([1]; mean, Std Zeta in separate column): 25.4 mV; Absolute Infectivity / RLU /s (Feb2021) ([2]; Feb2021 data set, in other rows equals the 1.3 µM column, mean, STD in separate column): 20676.66667 RLU /s; Rel-to EFC (Feb-2021) ([2]; Feb2021 data set, infectivity enhancement relative to EF-C): 0.7649; n-fold to virus (Feb2021) ([2]; Feb2021 data set, infectivity n-fold to virus alone): 32.14; Log10 of Rel to EFC (Feb2021) ([2]; Feb2021 data set, log10 of infectivity relative to EF-C): -0.1164; Rel-to EFC [2, 17]: 0.7649; n-fold to virus [2, 18]: 32.1399; Log Count Rate [3, 19]: 2.866; Log Count Rate ([3]; Fig S8 panels B, D): 2.866; Count Rate [3, 20]: 734.63; Zeta Count Rate Category ([3]; category from count rate, key not given): 1; Zeta Count Rate / kcps [3, 21]: 734.6 kcps |
| KAKAQANM [TM152] | 0 (0 = -4mV to 4 mV) | 0 (0 = -4mV to 4 mV) | -2.62 mV | -2.62 mV | -2.62 mV | -2.046 | 0.009 | 0.3782 | -2.046 | 0.009 | low | low | -2.046 | 0 | 42.5 kcps | 42.5 kcps | 0.3782 | 0.009 | 496.7 RLU /s | 0 |  |
| RGDSKIKIQIC [TM113 / RC11] |  | 1 (+1 = if > 4 mV) | 15.1 mV |  | 15.1 mV | -0.2249 | 0.5957 |  |  |  | medium |  | -0.2249 | 1 | 2699 kcps |  |  |  |  |  | n-fold to virus (Feb2021) ([2]; Feb2021, infectivity relative to virus only (0 µM)): 25.03 n-fold |
| QCKFKQFFNM [CK11] | 1 (+1 = if > 4 mV) |  | 13.67 mV | 13.67 mV | 13.67 mV | -0.3706 |  | 17.9 | -0.3706 | 0.426 | medium |  | -0.3706 |  | 10384.7 kcps | 10384.7 kcps |  | 0.426 |  |  | Zeta Pot. / mV [1]: 13.67 mV; Zeta category ( +1 = if > 4 mV;-1 = if < -4 mV; 0 = -4mV to 4 mV) [1, 22]: 1 (+1 = if > 4 mV); Absolute Infectivity / RLU /s (Feb2021) ([2]; Feb2021, figures match the 1.3 µM column): 5847 RLU /s; Rel-to EFC (Feb-2021) [2, 23]: 0.426; n-fold to virus (Feb2021) ([2]; Feb2021, infectivity relative to virus only): 17.9; Zeta Count Rate Category ([3]; category 1 / 0, no key given): 1; Zeta Count Rate Category [3, 24]: 1; Zeta Count Rate / kcps [3, 21]: 10384.7 kcps |
| CKIKIQI [MG3b] | 1 (+1 = if > 4 mV) | 1 (+1 = if > 4 mV) | 12.8 mV | 12.8 mV | 12.8 mV | 0.008101 | 1.019 | 42.81 | 0.008101 | 1.019 |  | high | 0.0081 | 1 | 2432.9 kcps | 2432.9 kcps | 42.81 | 1.019 | 19406.66667 RLU /s | 1 | Zeta category ( +1 = if > 4 mV;-1 = if < -4 mV; 0 = -4mV to 4 mV) ([1]; FigS26): 1 (+1 = if > 4 mV); Zeta category ( +1 = if > 4 mV;-1 = if < -4 mV; 0 = -4mV to 4 mV) [1, 22]: 1 (+1 = if > 4 mV); Rel-to EFC (Feb-2021) [2, 23]: 1.019; Log10 of Rel to EFC (Feb2021) [2, 25]: 0.008101; Rel-to EFC [2, 17]: 1.019; n-fold to virus [2, 18]: 42.81; Rel-to EFC (Feb-2021) [2, 26]: 1.019; n-fold to virus (Feb2021) [2, 27]: 42.81; Log10 of Rel to EFC (Feb2021) [2, 28]: 0.008101; Log Count Rate [3, 19]: 3.386; Log Count Rate ([3]; Fig S8 panels B, D): 3.386; Count Rate [3, 20]: 2432.9; Zeta Count Rate Category [3, 24]: 1; Zeta Count Rate / kcps [3, 29]: 2432.9 kcps; Zeta Count Rate Category ([3]; key not given): 1 |
| CEIEIQINMWQ [TM143] | -1 (-1 = if < -4 mV) |  | -25.8 mV | -25.8 mV | -25.8 mV |  |  |  |  |  | medium |  | -0.6602 |  | 1570 kcps |  | 9.188 | 0.2187 | 12066.66667 RLU /s | 1 | Log10 of Rel to EFC (Feb2021) [2, 25]: -0.6602; Rel-to EFC (Feb-2021) [2, 26]: 0.2187; n-fold to virus (Feb2021) [2, 27]: 9.188; Log10 of Rel to EFC (Feb2021) [2, 28]: -0.6602; Zeta Count Rate / kcps [3, 29]: 1570 kcps; Zeta Count Rate Category ([3]; key not given): 1 |
